Among the data in US20230203041A1, “ANTAGONISTS OF THE ADENOSINE A2A RECEPTOR” (AdoRx Therapeutics Limited, priority 2020, published 2023) are Ki and IC50 values, retold here.

For assay [1], the target named is T1, human Adenosine A2b receptor (Homo sapiens, UniProt P29275).
T1 construct: expressed in transfected cells; host or cells: CHO cell membranes
T1 sequence (P29275 1-332): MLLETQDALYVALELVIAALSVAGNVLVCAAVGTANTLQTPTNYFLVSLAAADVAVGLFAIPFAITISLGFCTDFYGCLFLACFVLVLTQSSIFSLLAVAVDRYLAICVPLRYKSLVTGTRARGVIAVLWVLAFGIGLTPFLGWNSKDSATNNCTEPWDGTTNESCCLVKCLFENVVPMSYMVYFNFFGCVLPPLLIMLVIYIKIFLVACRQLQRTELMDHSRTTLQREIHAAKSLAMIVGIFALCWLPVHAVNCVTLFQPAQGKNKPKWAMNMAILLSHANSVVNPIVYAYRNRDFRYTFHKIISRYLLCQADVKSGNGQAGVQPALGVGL
Briefly: Adenosine receptor TR-FRET binding assay (CA200645 displacement), A2b. Particulars: 30 nM CA200645, CHO cell membranes, 2 hours at room temperature. In general terms: TR-FRET usually uses a lanthanide donor and a delayed reading to cut background.
Experimental: All FRET binding experiments were conducted at room temperature in white 384-well plates, in assay binding buffer containing 1×LabMed (Cisbio, France), 100 μg/mL saponin, 1% DMSO and 0.02% pluronic acid. Binding of the fluorescently labelled Adenosine receptor antagonist XAC (CA200645, FRET acceptor) to terbium-labelled A1, A2a, A2b and A3 adenosine receptors (FRET donors) was detected by time-resolved FRET due to the close proximity of the donor and acceptor in a binding event. To investigate the ability of unlabelled test compounds to bind to Adenosine A1, A2a, A2b and A3 receptors, dose response curves were constructed that determined the ability of a range of concentrations to inhibit the binding of 30 nM CA200645 to the A2b receptor and 100 nM CA200645 to the A1, A2a, and A3 receptor.
Serial dilution (1:3 dilutions) of test compounds in neat DMSO and transfer of a 400 nL sample of test compound into the assay plate was carried out using the Mosquito (TTP Labtech, UK). The compound samples were incubated for 2 hours at room temperature with a fixed concentration of CA200645 defined for each receptor (see above) and CHO cell membranes containing the human Adenosine A1 (0.5 μg/well), A2a (0.3 μg/well), A2b (1 μg/well) or A3 (1 μg/well) receptor in 40 μL of assay buffer. Total and non-specific binding of CA200645 was determined in the absence and presence of 10 μM XAC, respectively. Following 2 hours incubation, the level of CA200645 binding was detected on a Pherastar FSX (BMG Labtech, Germany) using standard TR-FRET settings. The terbium donor was excited with three laser flashes at a wavelength of 337 nm, and donor and acceptor emission was detected at 620 nm and 665 nm wavelengths, respectively. FRET ratios were obtained by multiplying the acceptor/donor ratio value by 10,000. Specific binding was determined by subtracting the non-specific binding FRET ratio from the total binding FRET ratio. Compound IC50 curves were analysed using GraphPad Prism 7.0 (GraphPad, USA) and Ki affinity values were determined from the obtained IC50 values using the method of Cheng and Prusoff.

Assay [2] addresses T2, human Adenosine A2a receptor (Homo sapiens, UniProt P29274).
T2 construct: expressed in transfected cells; host or cells: CHO cell membranes
Briefly: Adenosine receptor TR-FRET binding assay (CA200645 displacement), A2a. The conditions noted are these: 100 nM CA200645, CHO cell membranes, 2 hours at room temperature.

The subject of assay [3] is CD8+ T cells in human whole blood. The assay is described as follows: Measurement of pCREB in CD8+ T cells in human whole blood. Type of assay: cell-based. The conditions noted are these: T-cell, 1 h; heparinised human whole blood, rolipram, 3 μM NECA, 60 min, phospho-CREB in CD8+ T cells by FACS. In outline: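 Heparinised human whole blood preincubated 20 min at 37 °C with serially diluted A2a antagonists plus rolipram, then stimulated 60 min with 3 μM NECA (final). After fixation and RBC lysis, permeabilized leukocytes stained for phospho-CREB and CD8; pCREB in CD8+ T cells read by flow cytometry.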
Background: Flow cytometry measures light scatter and fluorescence of single cells or particles in a stream.

For assay [4], the target named is T3, human Adenosine A1 receptor (Homo sapiens, UniProt P30542).
T3 sequence (P30542 1-326): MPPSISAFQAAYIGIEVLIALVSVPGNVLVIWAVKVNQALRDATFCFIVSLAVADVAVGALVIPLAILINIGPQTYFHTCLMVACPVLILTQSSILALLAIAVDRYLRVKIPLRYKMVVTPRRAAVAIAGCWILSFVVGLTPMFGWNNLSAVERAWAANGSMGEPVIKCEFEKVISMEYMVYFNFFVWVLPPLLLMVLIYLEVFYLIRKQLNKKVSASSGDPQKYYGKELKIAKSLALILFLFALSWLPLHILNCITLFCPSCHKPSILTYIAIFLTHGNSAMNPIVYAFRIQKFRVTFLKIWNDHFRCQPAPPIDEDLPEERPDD
Briefly: Adenosine receptor TR-FRET binding assay (CA200645 displacement), A1.

Assay [5] concerns the target T4, human Adenosine A3 receptor (Homo sapiens, UniProt P0DMS8).
T4 sequence (P0DMS8 1-318): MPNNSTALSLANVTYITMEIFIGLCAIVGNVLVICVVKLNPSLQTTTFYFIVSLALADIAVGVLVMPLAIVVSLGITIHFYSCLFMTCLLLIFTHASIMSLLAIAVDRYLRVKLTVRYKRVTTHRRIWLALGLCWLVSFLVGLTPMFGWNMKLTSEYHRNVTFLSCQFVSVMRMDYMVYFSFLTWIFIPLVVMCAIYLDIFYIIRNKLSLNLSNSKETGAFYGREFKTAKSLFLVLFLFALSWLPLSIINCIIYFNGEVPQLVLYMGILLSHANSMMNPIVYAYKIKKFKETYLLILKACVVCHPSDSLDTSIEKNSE
The assay is described as follows: Adenosine receptor TR-FRET binding assay (CA200645 displacement), A3.

The test system of another assay is human PBMCs. Briefly: CD3/CD28 stimulated IL-2 release NECA reversal assay in human PBMCs.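 Note: dose-response as % inhibition where 100% equals no-NECA control wells with CD3/CD28.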 Particulars: PBMC, CD3/CD28 antibody stimulated, 1 uM NECA, 24 hours, IL-2 in culture supernatant. It counts as cell-based. In outline:
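PBMCs from citrated donor blood, 50,000 cells/well on plate-bound CD3 antibody (1 ug/ml), with 1 ug/ml CD28 antibody, 1 uM NECA and antagonist at 0.003-10 μM final. After 24 h at 37° C, supernatant IL-2 was measured by MSD immunoassay.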

T2 sequence (P29274 whole entry): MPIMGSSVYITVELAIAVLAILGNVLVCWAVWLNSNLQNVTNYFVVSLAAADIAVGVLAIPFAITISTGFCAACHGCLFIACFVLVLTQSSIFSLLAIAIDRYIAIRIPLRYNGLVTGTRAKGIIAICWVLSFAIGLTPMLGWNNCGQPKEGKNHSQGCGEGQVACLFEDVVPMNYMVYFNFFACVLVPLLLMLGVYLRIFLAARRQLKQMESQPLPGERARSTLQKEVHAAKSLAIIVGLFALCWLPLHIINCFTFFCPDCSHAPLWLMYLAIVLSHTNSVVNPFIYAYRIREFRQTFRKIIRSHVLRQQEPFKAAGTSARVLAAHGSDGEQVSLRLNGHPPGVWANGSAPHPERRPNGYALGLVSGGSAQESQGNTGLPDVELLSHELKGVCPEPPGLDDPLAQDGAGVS

As for `Cc1cc(-c2c(-c3cccc(C#N)c3)nn3ccc(C(=O)NCC4(C)CCCNC4)nc23)cc(Cl)n1` (stereo not drawn) [Example 7.18, 3-(2-Chloro-6-methyl-4-pyridyl)-2-(3-cyanophenyl)-N-[(3-methyl-3-piperidyl)methyl]pyrazolo[1,5-a]pyrimidine-5-carboxamide], the Ki (in general, the equilibrium dissociation constant of an inhibitor or competing ligand from its target) in assay [1] is 14 nM; in assay [2] it was 1 nM; in assay [4] it was 20 nM; in assay [5], above 1000 nM. Besides, the IC50 (as a rule, the concentration that inhibits the measured activity by half) was found to be 470 nM in assay [3] and 19 nM in the assay with human PBMCs.
As for `Cc1cc(-c2c(-c3cccc(C#N)c3)nn3ccc(C(=O)N[C@@H](C)[C@H](O)CO)nc23)cc(Cl)n1` [Example 7.19, 3-(2-Chloro-6-methyl-4-pyridyl)-2-(3-cyanophenyl)-N-[(1S,2S)-2,3-dihydroxy-1-methyl-propyl]pyrazolo[1,5-a]pyrimidine-5-carboxamide], the Ki was 4 nM in assay [1], 0.1 nM in assay [2], 20 nM in assay [4] and 1410 nM in assay [5]. Further, the IC50 in assay [3] came to 100 nM; in the assay with human PBMCs, 4 nM.
With `Cc1cc(-c2c(-c3cccc(C#N)c3)nn3ccc(C(=O)NCC(C)(C)O)nc23)cc(C)n1` [Example 10, 2-(3-Cyanophenyl)-3-(2,6-dimethyl-4-pyridyl)-N-(2-hydroxy-2-methyl-propyl)pyrazolo[1,5-a]pyrimidine-5-carboxamide], the inhibition constant (Ki) in assay [1] is 19 nM; in assay [2], 0.4 nM; in assay [4] it was 236 nM; in assay [5], above 1000 nM. In addition, the results for the IC50 (in assay [3]; in the assay with human PBMCs) were 80 nM and 6 nM, respectively.
For `Cc1cc(-c2c(-c3cccc(C#N)c3)nn3ccc(C(=O)NCC(C)(C)O)nc23)ccn1` [Example 12.2, 2-(3-Cyanophenyl)-N-(2-hydroxy-2-methyl-propyl)-3-(2-methyl-4-pyridyl)pyrazolo[1,5-a]pyrimidine-5-carboxamide], the Ki in assay [1] worked out at 21 nM; in assay [2] it was 2.9 nM; in assay [4], 5 nM; in assay [5], 56 nM. Further, the IC50 in assay [3] is 520 nM; with human PBMCs, 22 nM.
As for `Cc1cc(-c2c(-c3cccc(C#N)c3)nn3ccc(C(=O)NCC(C)(C)O)nc23)cc(C(F)F)n1` [Example 12.4, 2-(3-Cyanophenyl)-3-[2-(difluoromethyl)-6-methyl-4-pyridyl]-N-(2-hydroxy-2-methyl-propyl)pyrazolo[1,5-a]pyrimidine-5-carboxamide], the Ki in assay [1] came to 12 nM; in assay [2], 0.1 nM; in assay [4], 148 nM; in assay [5], 1550 nM. The values for the IC50 (in assay [3]; in the assay with human PBMCs) were 150 nM and 4 nM, respectively.
For `COc1cc(-c2c(-c3cccc(C#N)c3)nn3ccc(C(=O)NCC(C)(C)O)nc23)cc(C)n1` [Example 12.6, 2-(3-Cyanophenyl)-N-(2-hydroxy-2-methyl-propyl)-3-(2-methoxy-6-methyl-4-pyridyl)pyrazolo[1,5-a]pyrimidine-5-carboxamide], the inhibition constant Ki was 75 nM in assay [1], 1 nM in assay [2], 251 nM in assay [4] and 690 nM in assay [5]. In addition, the IC50 in assay [3] was found to be 370 nM; in the assay on human PBMCs, 9 nM.
On to `Cc1cc(-c2c(-c3cccc(C#N)c3)nn3ccc(C(=O)NCC(C)(C)O)nc23)cc(C#N)n1` [Example 12.8, 3-(2-Cyano-6-methyl-4-pyridyl)-2-(3-cyanophenyl)-N-(2-hydroxy-2-methyl-propyl)pyrazolo[1,5-a]pyrimidine-5-carboxamide], for which the Ki in assay [1] was 177 nM; in assay [2], 3.4 nM; in assay [4] it was 575 nM; in assay [5], above 1000 nM. For the same compound, the half-maximal inhibitory concentration (IC50) was 350 nM in assay [3] and 35 nM with human PBMCs.
For the compound `Cc1cc(-c2c(-c3cccc(C#N)c3)nn3ccc(C(=O)NCC(C)(C)O)nc23)cc(C(F)(F)F)n1` [Example 12.9, 2-(3-Cyanophenyl)-N-(2-hydroxy-2-methyl-propyl)-3-[2-methyl-6-(trifluoromethyl)-4-pyridyl]pyrazolo[1,5-a]pyrimidine-5-carboxamide], the inhibition constant Ki in assay [1] came to 6 nM; in assay [2] it was 0.1 nM; in assay [4] it was 47 nM; in assay [5], 860 nM. Moreover, the IC50 in assay [3] was 80 nM; in the assay with human PBMCs it was 2 nM.
Regarding `Cc1cc(-c2c(-c3cccc(C#N)c3)nn3ccc(OCC(C)(C)O)nc23)cc(Cl)n1` [Example 15, 3-[3-(2-Chloro-6-methyl-4-pyridyl)-5-(2-hydroxy-2-methyl-propoxy)pyrazolo[1,5-a]pyrimidin-2-yl]benzonitrile], the Ki in assay [1] was found to be 9 nM; in assay [2], 1.2 nM; in assay [4], 46 nM; in assay [5], 1920 nM. The IC50 turned out to be 380 nM in assay [3] and 2 nM in the assay with human PBMCs.
As to `Cc1cc(-c2c(-c3cccc(C#N)c3)nn3ccc(NC(=N)N)nc23)cc(Cl)n1` [Example 16.1, 1-[3-(2-Chloro-6-methyl-4-pyridyl)-2-(3-cyanophenyl)pyrazolo[1,5-a]pyrimidin-5-yl]guanidine], the Ki in assay [1] was found to be 8 nM; in assay [2], 1.4 nM; in assay [4] it was 116 nM; in assay [5], 2600 nM. For the same compound, the IC50 is 1050 nM in assay [3] and 77 nM in the assay with human PBMCs.
As to `Cc1cc(-c2c(-c3cccc(C#N)c3)nn3ccc(NCC(C)(C)O)nc23)cc(C(F)F)n1` [Example 23, 3-[3-[2-(Difluoromethyl)-6-methyl-4-pyridyl]-5-[(2-hydroxy-2-methyl-propyl)amino]pyrazolo[1,5-a]pyrimidin-2-yl]benzonitrile], the Ki in assay [1] is 53 nM; in assay [2], 0.6 nM; in assay [4] it was 42 nM; in assay [5], above 1000 nM. Moreover, the IC50 in assay [3] was found to be 390 nM; in the assay on human PBMCs, 20 nM.
In the case of `COc1cc(-c2c(-c3cccc(C#N)c3)nn3ccc(NCC(C)(C)O)nc23)cc(C)n1` [Example 23.1], the Ki in assay [1] was 143 nM; in assay [2] it was 1.3 nM; in assay [4] it was 147 nM; in assay [5], above 1000 nM. Also, the 50% inhibitory concentration (IC50) came out at 1010 nM in assay [3] and 83 nM with human PBMCs.
With `Cc1cc(-c2c(-c3cccc(C#N)c3)nn3ccc(NCC(C)(C)O)nc23)cc(C)n1` [Example 23.2], the inhibitory constant (Ki) was 168 nM in assay [1], 1.9 nM in assay [2], 280 nM in assay [4] and above 1000 nM in assay [5]. The IC50 was determined as 260 nM in assay [3] and 25 nM in the assay with human PBMCs.
For `Cc1cc(-c2c(-c3cccc(C#N)c3)nn3ccc(OC4CCNCC4)nc23)cc(Cl)n1` [Example 24, 3-[3-(2-Chloro-6-methyl-4-pyridyl)-5-(4-piperidyloxy)pyrazolo[1,5-a]pyrimidin-2-yl]benzonitrile], the Ki is 16 nM in assay [1], 0.6 nM in assay [2], 216 nM in assay [4] and above 1000 nM in assay [5]. Besides, the IC50 worked out at 3630 nM in assay [3] and 51 nM in the assay on human PBMCs.
Turning to `Cc1cc(-c2c(-c3cccc(C#N)c3)nn3ccc(N)nc23)cc(C(F)F)n1` [Example 26.1, 3-[5-Amino-3-[2-(difluoromethyl)-6-methyl-4-pyridyl]pyrazolo[1,5-a]pyrimidin-2-yl]benzonitrile], the Ki in assay [1] came to 2 nM; in assay [2], 1.5 nM; in assay [4], 17 nM; in assay [5], 2360 nM. Besides, the IC50 in assay [3] was 460 nM; in the assay with human PBMCs, 32 nM.
